Laboratory results reported in patent publication US20260263338A1, “COMPOSITIONS COMPRISING AMAROUCIAXANTHIN A ESTERS AND USES THEREOF” (GAT THERAPEUTICS, S.L., priority 2022, published 2026).
Values after ≈ are worked out from the molar mass of the structure shown.

Experiments:
[1] = Oral kinetic assay in mice: plasma concentration of ACX after oral delivery of FCX or ACX-Ac; format: in vivo, mice Hsd: ICR (CD-1); conditions: for AUCt, area under the concentration-time curve from 0 to the time of the last quantifiable observation, of ACX / Cmax: ACX measured in plasma after the named compound, oral (intragastric), single 10 mg/kg, sunflower oil; for AUCt, area under the concentration-time curve from 0 to the time of the last quantifiable observation, of ACX: linear-log trapezoidal rule; for Cmax: noncompartmental analysis, read-out: Cmax, maximum observed plasma concentration of ACX
Description: Immunocompetent mice from the strain Hsd: ICR (CD-1) (females, 6-7 weeks old from ENVIGO), were housed under sterile conditions at a constant temperature of 20-22° C. and relative humidity (45-65%) under daily cycles of light/darkness (12 hours). Sterilized water and food were available ad libitum.
ACX-Ac was dissolved at 1 mg/mL in sunflower oil and sterilized by filtration. FCX was dissolved at 2 mg/mL in sunflower oil and sterilized by filtration. Animals were weighted before the assay to determine the appropriate dispensing volume at 5 mL/kg (FCX) or 10 ml/kg (ACX-Ac). Formulations were administered once, intragastrically, at 10 mg/kg. Blood was collected at different time points, as stated in Table 1. It was extracted either through the facial vein or by intracardiac puncture (end points), on recipients containing 5 μL of 0.5 M EDTA.
Blood samples were analyzed by HPLC-MS/MS following proprietary analytical methods and the concentration of ACX in each sample was determined. A non-compartmental pharmacokinetic analysis was carried out using individual plasma concentrations versus sampling times by means of the PKPlus® software version 2.0 (Simulations Plus, Lancaster, CA 93534, USA).

[2] = Solubility in different lipid vehicle formulations (HPLC assay of the filtered sample); format: physicochemical; conditions: about 25 mg compound in 1 mL
Description: About 25 mg of compound was weighted into a glass vial and 1 mL of the lipophilic solvent was added to the vial containing the compound. The vial was vortexed for 1 minute followed by sonication for 30 minutes. The resulting solution was visually observed for any undissolved particles. The sonicated sample was filtered through a 0.22 μm PTFE filter and 500 μL of this filtered sample was dissolved with 25 mL of a EtOH: hexane (80:20) solution (“dilution 1”). 1 mL of “dilution 1” was dissolved with 10 mL of ACN to obtain “dilution 2”. 1 mL of “dilution 2” was filtered through a 0.22 μm PTFE filter and directly used for assay by HPLC. The concentration was calculated by extrapolation from a calibration curve. 1.00 mg of standard compound was accurately weighted (precision scale) and diluted to 100 ppm in a volumetric flask.

[3] = DHA (fish oil), PUFA-enriched oil

SMILES	AUCt, area under the concentration-time curve from 0 to the time of the last quantifiable observation, of ACX [1] [µM·h]	Cmax [1] [µM]	oral absorption of the administered compound ([1]; oral, oil formulation, 10 mg/kg)	solubility [2, 3] [mg/mL]	solubility ([2]; Labrafac Lipophile 1349) [mg/mL]	solubility ([2]; Labrafac MC60) [mg/mL]	solubility ([2]; Labrafil M 1944CS) [mg/mL]	solubility ([2]; Labrafil M 2125) [mg/mL]	solubility ([2]; Labrasol ALF) [mg/mL]	solubility ([2]; Maisine) [mg/mL]	solubility ([2]; Plurol Oleique) [mg/mL]	solubility ([2]; Sunflower oil) [mg/mL]	administered compound detected in plasma samples ([1]; oral, 10 mg/kg in sunflower oil)	plasma levels of ACX in comparison to those obtained after FX administration ([1]; oral, 10 mg/kg in sunflower oil, FIG. 1 and Table 3)
CC(=O)O[C@H]1CC(C)(C)C(=C=C/C(C)=C/C=C/C(C)=C/C=C/C=C(C)/C=C/C=C(\C)C(=O)C[C@@]23O[C@]2(C)C[C@@H](O)CC3(C)C)[C@](C)(O)C1 [FCX, fucoxanthin]	51.19	2.87	negligible	4.1 (≈ 6.22 mM)	16.9 (≈ 25.6 mM)	20.4 (≈ 31 mM)	17.6 (≈ 26.7 mM)	23.0 (≈ 34.9 mM)	22.3 (≈ 33.8 mM)	23.0 (≈ 34.9 mM)	20.7 (≈ 31.4 mM)	5.0 (≈ 7.59 mM)		
CC(=O)O[C@H]1CC(C)(C)C(=C=C/C(C)=C/C=C/C(C)=C/C=C/C=C(C)/C=C/C=C(\C)C(=O)C[C@@]2(O)C(C)=CC(=O)CC2(C)C)[C@](C)(O)C1 [ACX-Ac, Amarouciaxanthin A acetate]	80.59	9.35		18.3	21.7	21.0	22.6	23.0	22.4	22.9	11.9	19.9	not detected	substantially higher
CC1=CC(=O)CC(C)(C)[C@@]1(O)CC(=O)/C(C)=C/C=C/C(C)=C/C=C/C=C(C)/C=C/C=C(\C)C=C=C1C(C)(C)C[C@H](O)C[C@@]1(C)O [ACX, Amarouciaxanthin A]				7.2 (≈ 11.7 mM)	19.0 (≈ 30.9 mM)	15.9 (≈ 25.9 mM)	19.9 (≈ 32.4 mM)	20.3 (≈ 33 mM)	22.4 (≈ 36.4 mM)	19.9 (≈ 32.4 mM)	16.7 (≈ 27.2 mM)	9.2 (≈ 15 mM)		
